Patent publication US20240270762A1, “PENICILLIN-BINDING PROTEIN INHIBITORS” (priority 2021, published 2024)
Values after ≈ are worked out from the molar mass of the structure shown.

Tests used:
A. baumannii 1258916 = experiment: microbe, parasite or virus in culture; assay type: cell-based, Acinetobacter baumannii; settings: Acinetobacter baumannii, 1258916, read-out: MIC, A. baumannii 1258916
[1] = test system: B. thailandensis ATCC 700388; experiment: microbe, parasite or virus in culture; assay type: cell-based; settings: Burkholderia thailandensis, ATCC700388, read-out: Minimum inhibitory concentration (MIC), B. thailandensis ATCC 700388
A. baumannii PBP2 = A. baumannii PBP2 (Acinetobacter baumannii, UniProt D0C8Z9); experiment: Bocillin-FL competition binding via gel filtration, A. baumannii PBP2
Summary of the method: (§1)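 Competitive equilibrium binding; reporter Bocillin-FL. PBP + inhibitor (titration) pre-incubated → Bocillin-FL, 15 min → gel filtration → fluorescence. EC50 from Hill fit of fraction bound vs [inhibitor].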

P. aeruginosa CDC-0054 = experiment: microbe, parasite or virus in culture; assay type: cell-based; settings: Pseudomonas aeruginosa, CDC0054, read-out: Minimum inhibitory concentration, P. aeruginosa CDC-0054
P. aeruginosa CDC-0090 = experiment: microbe, parasite or virus in culture; assay type: cell-based; settings: Pseudomonas aeruginosa, CDC0090, read-out: Minimum inhibitory concentration, P. aeruginosa CDC-0090
[2] = test system: B. humptydooensis ATCC BAA-2767; experiment: microbe, parasite or virus in culture; assay type: cell-based; settings: Burkholderia humptydooensis, ATCCBAA2767, read-out: Minimum inhibitory concentration (MIC), B. humptydooensis ATCC BAA-2767
A. baumannii PBP1a = biological target: T1, A. baumannii PBP1a (Acinetobacter baumannii, UniProt A0ABX6CK30); experiment: Bocillin-FL competition binding via gel filtration, A. baumannii PBP1a; settings: competition binding assay using Bocillin-FL via gel filtration; read-out: A. baumannii PBP1a Potency
T1 sequence (A0ABX6CK30 1-851): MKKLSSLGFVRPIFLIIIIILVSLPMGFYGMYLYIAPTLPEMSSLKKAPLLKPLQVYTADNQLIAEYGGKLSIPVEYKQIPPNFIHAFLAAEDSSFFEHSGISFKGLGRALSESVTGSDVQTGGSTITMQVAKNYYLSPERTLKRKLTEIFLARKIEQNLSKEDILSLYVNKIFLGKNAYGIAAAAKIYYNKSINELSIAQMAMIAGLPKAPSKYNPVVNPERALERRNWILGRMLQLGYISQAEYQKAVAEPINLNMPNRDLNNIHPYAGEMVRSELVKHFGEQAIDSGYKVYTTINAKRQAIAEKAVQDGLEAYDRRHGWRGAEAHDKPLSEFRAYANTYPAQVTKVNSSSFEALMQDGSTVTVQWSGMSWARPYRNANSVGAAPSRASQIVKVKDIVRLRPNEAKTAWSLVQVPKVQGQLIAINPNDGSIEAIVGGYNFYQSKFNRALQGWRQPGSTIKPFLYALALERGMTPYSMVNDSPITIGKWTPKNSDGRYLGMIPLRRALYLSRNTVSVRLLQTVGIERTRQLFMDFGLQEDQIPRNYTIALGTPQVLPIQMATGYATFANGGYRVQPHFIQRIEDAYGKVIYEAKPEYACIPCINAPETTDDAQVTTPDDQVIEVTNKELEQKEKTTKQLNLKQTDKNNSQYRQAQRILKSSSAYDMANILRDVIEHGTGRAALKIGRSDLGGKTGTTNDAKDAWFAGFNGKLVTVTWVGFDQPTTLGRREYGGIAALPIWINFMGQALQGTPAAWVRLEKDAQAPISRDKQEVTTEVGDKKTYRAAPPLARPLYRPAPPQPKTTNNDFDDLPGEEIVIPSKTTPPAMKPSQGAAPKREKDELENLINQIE
Summary of the method: as §1

P. aeruginosa ATCC 35151 = experiment: microbe, parasite or virus in culture; assay type: cell-based; settings: Pseudomonas aeruginosa, ATCC35151, read-out: Minimum inhibitory concentration, P. aeruginosa ATCC 35151
P. aeruginosa CDC-0110 = experiment: microbe, parasite or virus in culture; assay type: cell-based; settings: Pseudomonas aeruginosa, CDC0110, read-out: Minimum inhibitory concentration, P. aeruginosa CDC-0110
[3] = test system: P. aeruginosa (ΔmexAB-oprM); experiment: Broth microdilution MIC in iron-depleted CAMHB (IDM); assay type: cell-based; settings: Pseudomonas aeruginosa; iron-depleted CAMHB (IDM); […]; read-out: Minimum inhibitory concentration, P. aeruginosa ΔmexAB-oprM
A. baumannii ATCC 19606 = experiment: microbe, parasite or virus in culture; assay type: cell-based; settings: Acinetobacter baumannii, ATCC19606, read-out: MIC, A. baumannii ATCC 19606
A. baumannii ATCC 17978 = experiment: microbe, parasite or virus in culture; assay type: cell-based; settings: Acinetobacter baumannii, ATCC17978, read-out: MIC, A. baumannii ATCC 17978
P. aeruginosa CDC-0095 = experiment: microbe, parasite or virus in culture; assay type: cell-based; settings: Pseudomonas aeruginosa, CDC0095, read-out: Minimum inhibitory concentration, P. aeruginosa CDC-0095
A. baumannii CDC-0045 = experiment: microbe, parasite or virus in culture; assay type: cell-based; settings: Acinetobacter baumannii, CDC0045, read-out: MIC, A. baumannii CDC-0045
A. baumannii CDC-0083 = experiment: microbe, parasite or virus in culture; assay type: cell-based; settings: Acinetobacter baumannii, CDC0083, read-out: MIC, A. baumannii CDC-0083
A. baumannii CDC-0033 = experiment: microbe, parasite or virus in culture; assay type: cell-based; settings: Acinetobacter baumannii, CDC0033, read-out: MIC, A. baumannii CDC-0033

A. baumannii PBP2, sequence (D0C8Z9 whole entry): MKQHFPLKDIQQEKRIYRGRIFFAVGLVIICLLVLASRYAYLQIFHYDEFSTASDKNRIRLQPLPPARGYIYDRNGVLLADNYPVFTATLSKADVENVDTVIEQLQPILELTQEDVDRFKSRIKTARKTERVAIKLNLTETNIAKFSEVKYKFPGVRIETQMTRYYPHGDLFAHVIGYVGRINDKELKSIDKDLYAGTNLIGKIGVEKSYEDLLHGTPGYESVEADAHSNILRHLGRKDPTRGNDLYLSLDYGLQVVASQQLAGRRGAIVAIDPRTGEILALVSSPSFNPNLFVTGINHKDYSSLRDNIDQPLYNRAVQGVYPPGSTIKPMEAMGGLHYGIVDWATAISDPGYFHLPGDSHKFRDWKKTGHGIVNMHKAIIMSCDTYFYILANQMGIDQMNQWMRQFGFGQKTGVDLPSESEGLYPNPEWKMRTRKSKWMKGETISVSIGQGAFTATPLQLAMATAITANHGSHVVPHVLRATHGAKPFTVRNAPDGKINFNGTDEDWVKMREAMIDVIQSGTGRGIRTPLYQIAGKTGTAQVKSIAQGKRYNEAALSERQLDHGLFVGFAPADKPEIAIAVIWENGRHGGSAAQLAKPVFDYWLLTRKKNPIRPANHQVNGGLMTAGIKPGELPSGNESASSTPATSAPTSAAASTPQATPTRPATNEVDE

Row | SMILES | MIC (A. baumannii 1258916) | MIC [1] | EC50 (A. baumannii PBP2) | MIC (P. aeruginosa CDC-0054) | MIC (P. aeruginosa CDC-0090) | MIC [2] | EC50 (A. baumannii PBP1a) | MIC (P. aeruginosa ATCC 35151) | MIC (P. aeruginosa CDC-0110) | MIC [3] | MIC (A. baumannii ATCC 19606) | MIC (A. baumannii ATCC 17978) | MIC (P. aeruginosa CDC-0095) | MIC (A. baumannii CDC-0045) | MIC (A. baumannii CDC-0083) | MIC (A. baumannii CDC-0033)
1 | O=C(NCCCN1CCN(C(=O)NC(C(=O)N[C@H]2Cc3ccc(F)c(C(=O)O)c3OB2O)c2cc(F)c(O)c(O)c2Cl)C(=O)C1=O)c1c(F)ccc(O)c1Cl (stereo partly drawn) [Example 414, (3R)-3-(2-(2-chloro-5-fluoro-3,4-dihydroxyphenyl)-2-(4-(3-(2-chloro-6-fluoro-3-hydroxybenzamido)propyl)-2,3-dioxopiperazine-1-carboxamido)acetamido)-7-fluoro-2-hydroxy-3,4-dihydro-2H-benzo[e][1,2]oxaborinine-8-carboxylic acid] | 2 to 4 µg/mL (≈ 2.46 to 4.92 µM) | 2 to 4 µg/mL (≈ 2.46 to 4.92 µM) | < 10 µM | < 1 µg/mL | < 1 µg/mL | 2 to 4 µg/mL (≈ 2.46 to 4.92 µM) | < 10 µM | < 1 µg/mL | < 1 µg/mL | < 1 µg/mL | < 1 µg/mL | < 1 µg/mL | < 1 µg/mL | 2 to 4 µg/mL (≈ 2.46 to 4.92 µM) | 2 to 4 µg/mL (≈ 2.46 to 4.92 µM) | 2 to 4 µg/mL (≈ 2.46 to 4.92 µM)
2 | O=C(O)c1c(F)ccc2c1OB(O)[C@@H](NC(=O)C(NC(=O)N1CCN(C3CCN(C(=O)c4cc(O)cc(O)c4)CC3)C(=O)C1=O)c1cc(F)c(O)c(O)c1Cl)C2 (stereo partly drawn) [Example 309, (3R)-3-(2-(2-chloro-5-fluoro-3,4-dihydroxyphenyl)-2-(4-(1-(3,5-dihydroxybenzoyl)piperidin-4-yl)-2,3-dioxopiperazine-1-carboxamido)acetamido)-7-fluoro-2-hydroxy-3,4-dihydro-2H-benzo[e][1,2]oxaborinine-8-carboxylic acid] | < 1 µg/mL | < 1 µg/mL | < 10 µM | < 1 µg/mL | 2 to 4 µg/mL (≈ 2.49 to 4.99 µM) | < 1 µg/mL | 10 to 50 µM | < 1 µg/mL | < 1 µg/mL | < 1 µg/mL | < 1 µg/mL | < 1 µg/mL | 2 to 4 µg/mL (≈ 2.49 to 4.99 µM) | < 1 µg/mL | < 1 µg/mL | 2 to 4 µg/mL (≈ 2.49 to 4.99 µM)
3 | O=C(NCCCN1CCN(C(=O)NC(C(=O)N[C@H]2Cc3ccc(F)c(C(=O)O)c3OB2O)c2cc(F)c(O)c(O)c2Cl)C(=O)C1=O)c1ccc(O)c(F)c1Cl (stereo partly drawn) [Example 418, (3R)-3-(2-(4-(3-(2-chloro-3-fluoro-4-hydroxybenzamido)propyl)-2,3-dioxopiperazine-1-carboxamido)-2-(2-chloro-5-fluoro-3,4-dihydroxyphenyl)acetamido)-7-fluoro-2-hydroxy-3,4-dihydro-2H-benzo[e][1,2]oxaborinine-8-carboxylic acid] | 2 to 4 µg/mL (≈ 2.46 to 4.92 µM) | < 1 µg/mL | < 10 µM | < 1 µg/mL | < 1 µg/mL | < 1 µg/mL | < 10 µM | < 1 µg/mL | < 1 µg/mL | < 1 µg/mL | < 1 µg/mL | < 1 µg/mL | 2 to 4 µg/mL (≈ 2.46 to 4.92 µM) | < 1 µg/mL | > 128 µg/mL | < 1 µg/mL
4 | O=C(NCCCN1CCN(C(=O)NC(C(=O)N[C@H]2Cc3ccc(F)c(C(=O)O)c3OB2O)c2cc(F)c(O)c(O)c2Cl)C(=O)C1=O)c1ccncc1F (stereo partly drawn) [Example 400, (3R)-3-(2-(2-chloro-5-fluoro-3,4-dihydroxyphenyl)-2-(4-(3-(3-fluoroisonicotinamido)propyl)-2,3-dioxopiperazine-1-carboxamido)acetamido)-7-fluoro-2-hydroxy-3,4-dihydro-2H-benzo[e][1,2]oxaborinine-8-carboxylic acid] | 2 to 4 µg/mL (≈ 2.62 to 5.24 µM) | 2 to 4 µg/mL (≈ 2.62 to 5.24 µM) | 10 to 50 µM | < 1 µg/mL | 2 to 4 µg/mL (≈ 2.62 to 5.24 µM) | 2 to 4 µg/mL (≈ 2.62 to 5.24 µM) | 10 to 50 µM | < 1 µg/mL | < 1 µg/mL | < 1 µg/mL | < 1 µg/mL | < 1 µg/mL | 2 to 4 µg/mL (≈ 2.62 to 5.24 µM) | < 1 µg/mL | 2 to 4 µg/mL (≈ 2.62 to 5.24 µM) | 2 to 4 µg/mL (≈ 2.62 to 5.24 µM)
5 | O=C(O)c1c(F)ccc2c1OB(O)[C@@H](NC(=O)C(NC(=O)N1CCN(C3CCN(S(=O)(=O)c4cccc(O)c4)CC3)C(=O)C1=O)c1cc(F)c(O)c(O)c1Cl)C2 (stereo partly drawn) [Example 428, (3R)-3-(2-(2-chloro-5-fluoro-3,4-dihydroxyphenyl)-2-(4-(1-((3-hydroxyphenyl)sulfonyl)piperidin-4-yl)-2,3-dioxopiperazine-1-carboxamido)acetamido)-7-fluoro-2-hydroxy-3,4-dihydro-2H-benzo[e][1,2]oxaborinine-8-carboxylic acid] | < 1 µg/mL | > 128 µg/mL | < 10 µM | < 1 µg/mL | < 1 µg/mL | > 128 µg/mL | < 10 µM | < 1 µg/mL | < 1 µg/mL | < 1 µg/mL | < 1 µg/mL | < 1 µg/mL | 2 to 4 µg/mL (≈ 2.43 to 4.87 µM) | < 1 µg/mL | 8 to 16 µg/mL (≈ 9.73 to 19.5 µM) | 2 to 4 µg/mL (≈ 2.43 to 4.87 µM)
6 | O=C(NCCCN1CCN(C(=O)NC(C(=O)N[C@H]2Cc3ccc(F)c(C(=O)O)c3OB2O)c2cc(F)c(O)c(O)c2Cl)C1=O)c1ccc(O)cc1 (stereo partly drawn) [Example 280, (3R)-3-(2-(2-chloro-5-fluoro-3,4-dihydroxyphenyl)-2-(3-(3-(4-hydroxybenzamido)propyl)-2-oxoimidazolidine-1-carboxamido)acetamido)-7-fluoro-2-hydroxy-3,4-dihydro-2H-benzo[e][1,2]oxaborinine-8-carboxylic acid] | < 1 µg/mL | 2 to 4 µg/mL (≈ 2.73 to 5.47 µM) | 10 to 50 µM | 2 to 4 µg/mL (≈ 2.73 to 5.47 µM) | 2 to 4 µg/mL (≈ 2.73 to 5.47 µM) | 2 to 4 µg/mL (≈ 2.73 to 5.47 µM) | 10 to 50 µM | < 1 µg/mL | 2 to 4 µg/mL (≈ 2.73 to 5.47 µM) | < 1 µg/mL | < 1 µg/mL | < 1 µg/mL | 8 to 16 µg/mL (≈ 10.9 to 21.9 µM) | < 1 µg/mL | 2 to 4 µg/mL (≈ 2.73 to 5.47 µM) | 2 to 4 µg/mL (≈ 2.73 to 5.47 µM)
